Consider 7 compounds from patent US20110086759A1, “CHEMICAL COMPOUNDS” (SYNGENTA CROP PROTECTION, INC., priority 2007, published 2011).

Format in all cases: in vivo
Test [1] concerns Ipomea hederaceae (IPOHE). As to the kind of experiment: Post-emergence biological efficacy, glasshouse pot test. As to conditions: Ipomoea hederacea, 312 h. The gist of the method: (§1)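 Scored 13 days after spraying on a 0 (no damage) to 100 (total damage) scale. Treatment was a post-emergence spray at 1000 or 250 g/ha, from acetone/water 50:50 plus 0.5% Tween 20, onto 8-day-old plants in soil pots. Growth at 24/16° C, 14 h photoperiod, 65% humidity, watered twice daily.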

Test [2] deals with Solanum nigrum (SOLNI). The test is described as above. To be noted: 312 h. The method, boiled down: as §1
In test [3] the test system is Alopecurus myosuroides (ALOMY). The description is as above. To be noted: 312 h. The gist of the method:
as §1

Test [4] has as its system Amaranthus retoflexus (AMARE). Described as above. To be noted: Amaranthus retroflexus, 312 h. The gist of the method: as §1
The subject of test [5] is Echinochloa crus-galli (ECHCG). The test is described as above. To be noted: 312 h. The gist of the method:
as §1

In test [6] the test system is Setaria faberi (SETFA). The test is described as above. As to conditions: 312 h. The method, boiled down:
as §1

Test [7] relates to Ipomea hederaceae (IPOHE). As to the kind of experiment: Pre-emergence biological efficacy, glasshouse pot test. As to conditions: Ipomoea hederacea, 312 h. The gist of the method: (§2)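 Sow seeds in pots of standard soil; after one day in the glasshouse, spray test compound (1000 or 250 g/ha) in aqueous acetone/water with 0.5% Tween 20. Grow 13 days at 24/16 °C day/night, then score damage from 0 to 100.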

Test [8] deals with Solanum nigrum (SOLNI). The description is as above. To be noted: 312 h. The method, boiled down:
as §2

The subject of test [9] is Alopecurus myosuroides (ALOMY). Described as above. As to conditions: 312 h. The method, boiled down:
as §2

Test [10] has as its system Amaranthus retoflexus (AMARE). The description is as above. As to conditions: Amaranthus retroflexus, 312 h. The gist of the method: as §2
The test system of test [11] is Echinochloa crus-galli (ECHCG). The test is described as above. To be noted: 312 h. The gist of the method:
as §2

Test [12] deals with Setaria faberi (SETFA). The description is as above. As to conditions: 312 h. The method, boiled down: as §2
Where [13] appears, read: post-emergence, 1,000 g/ha, evaluated after 13 days (100=total damage; 0=no damage), read-out: Percentage damage caused to weed species, IPOHE.
The mark [14] stands for this setting: post-emergence, 1,000 g/ha, evaluated after 13 days (100=total damage; 0=no damage), read-out: Percentage damage caused to weed species, SOLNI.
Setting [15] is: post-emergence, 1,000 g/ha, evaluated after 13 days (100=total damage; 0=no damage), read-out: Percentage damage caused to weed species, ALOMY.
The mark [16] stands for this setting: post-emergence, 1,000 g/ha, evaluated after 13 days (100=total damage; 0=no damage), read-out: Percentage damage caused to weed species, AMARE.
Where [17] appears, read: post-emergence, 1,000 g/ha, evaluated after 13 days (100=total damage; 0=no damage), read-out: Percentage damage caused to weed species, ECHCG.
Setting [18] is: post-emergence, 1,000 g/ha, evaluated after 13 days (100=total damage; 0=no damage), read-out: Percentage damage caused to weed species, SETFA.
Setting [19] is: pre-emergence, 1,000 g/ha, evaluated after 13 days (100=total damage; 0=no damage), read-out: Percentage damage IPOHE.
Setting [20] is: pre-emergence, 1,000 g/ha, evaluated after 13 days (100=total damage; 0=no damage), read-out: Percentage damage SOLNI.
[21] abbreviates: pre-emergence, 1,000 g/ha, evaluated after 13 days (100=total damage; 0=no damage), read-out: Percentage damage ALOMY.
Setting [22] is: pre-emergence, 1,000 g/ha, evaluated after 13 days (100=total damage; 0=no damage), read-out: Percentage damage AMARE.
[23] abbreviates: pre-emergence, 1,000 g/ha, evaluated after 13 days (100=total damage; 0=no damage), read-out: Percentage damage ECHCG.
The mark [24] stands for this setting: pre-emergence, 1,000 g/ha, evaluated after 13 days (100=total damage; 0=no damage), read-out: Percentage damage SETFA.

On to `COC(=O)c1nc(C2CC2)nc(NC2(/C=C/c3ccc(F)cc3F)CC2)c1Cl` [Compound 4-31, 5-Chloro-2-cyclopropyl-4-{1-[2-(2,4-difluoro-phenyl)-ethenyl]-cyclopropylamino}-6-methoxy-carbonylpyrimidine], for which the pest or weed control at 1000 g/ha in [1] (setting [13]) worked out at 80%; in the test on Solanum nigrum (SOLNI) [2] (setting [14]), 90%; in [3] (setting [15]), 10%; in test [4] (setting [16]) it was 100%; in [5] (setting [17]), 30%; in the test on Setaria faberi (SETFA) [6] (setting [18]), 80%. Also, the pest or weed control at 1000 g/ha in test [7] (setting [19]) came to 70%; in the test with Solanum nigrum (SOLNI) [8] (setting [20]) it was 20%; in test [9] (setting [21]), 0%; in test [10] (setting [22]), 80%; in test [11] (setting [23]), 0%; in the test with Setaria faberi (SETFA) [12] (setting [24]) it was 0%.
Consider `COC(=O)c1nc(C2CC2)nc(NCc2ccccc2OC)c1Cl` [Compound 4-78, 5-Chloro-2-cyclopropyl-6-methoxycarbonyl-4-(2-methoxyphenyl-methylamino)-pyrimidine], for which the pest or weed control at 1000 g/ha in test [1] (setting [13]) turned out to be 100%; with Solanum nigrum (SOLNI) [2] (setting [14]), 90%; in [3] (setting [15]), 30%; in test [4] (setting [16]) it was 100%; in [5] (setting [17]) it was 70%; in the test with Setaria faberi (SETFA) [6] (setting [18]), 80%. For the same compound, the pest or weed control at 1000 g/ha in test [7] (setting [19]) stood at 100%; in the test with Solanum nigrum (SOLNI) [8] (setting [20]), 90%; in [9] (setting [21]) it was 20%; in test [10] (setting [22]) it was 90%; in [11] (setting [23]) it was 60%; in the test on Setaria faberi (SETFA) [12] (setting [24]) it was 40%.
For the compound `COC(=O)c1nc(C2CC2)nc(N[C@@H](Cc2cccc(C(F)(F)F)c2)C(=O)OC)c1Cl` [4-286 (S), 5-Chloro-2-cyclopropyl-6-methoxycarbonyl-4-[(1S)-1-methoxy-carbonyl-2-(3-trifluoromethyl-phenyl)-ethylamino]-pyrimidine], the pest or weed control at 1000 g/ha was determined as 50% in [1] (setting [13]); 80% with Solanum nigrum (SOLNI) [2] (setting [14]); 10% in test [3] (setting [15]); 100% in test [4] (setting [16]); 10% in test [5] (setting [17]); 20% in the test on Setaria faberi (SETFA) [6] (setting [18]). For the same compound, the pest or weed control at 1000 g/ha in [7] (setting [19]) stood at 100%; in the test with Solanum nigrum (SOLNI) [8] (setting [20]), 80%; in test [9] (setting [21]), 10%; in [10] (setting [22]), 90%; in test [11] (setting [23]) it was 20%; in the test with Setaria faberi (SETFA) [12] (setting [24]), 20%.
In the case of `CC(Nc1nc(C2CC2)nc(C(=O)O)c1Cl)c1ccc(Cl)cc1` (stereo not drawn) [Compound 1-176, 5-Chloro-4-[1-(4-chlorophenyl)ethyl-amino]-2-cyclopropyl-pyrimidine-6-carboxylic acid], the pest or weed control at 1000 g/ha in [1] (setting [13]) turned out to be 40%; in the test with Solanum nigrum (SOLNI) [2] (setting [14]), 60%; in test [3] (setting [15]), 10%; in test [4] (setting [16]) it was 40%; in test [5] (setting [17]) it was 10%; in the test with Setaria faberi (SETFA) [6] (setting [18]) it was 20%. Further, the pest or weed control at 1000 g/ha (in test [7] (setting [19]); in the test on Solanum nigrum (SOLNI) [8] (setting [20]); in test [9] (setting [21]); in test [10] (setting [22]); in test [11] (setting [23]); in the test with Setaria faberi (SETFA) [12] (setting [24])) was 0% throughout.
As to `COC(=O)c1nc(-c2cc(Cl)c(Cl)cc2Cl)nc(NCc2ccco2)c1Cl` [Compound 228-48, 5-Chloro-4-(furan-2-ylmethylamino)-6-methoxycarbonyl-2-(2,4,5-trichloro-phenyl)pyrimidine], the pest or weed control at 1000 g/ha in test [1] (Rate 1,000 g/ha, post-emergence spray, evaluated after 13 days (100=total damage to plant; 0=no damage to plant), read-out: Percentage damage caused to weed species, post-emergence, IPOHE) worked out at 10%; in the test on Solanum nigrum (SOLNI) [2] (Rate 1,000 g/ha, post-emergence spray, evaluated after 13 days (100=total damage to plant; 0=no damage to plant), read-out: Percentage damage caused to weed species, post-emergence, SOLNI), 30%; in test [3] (Rate 1,000 g/ha, post-emergence spray, evaluated after 13 days (100=total damage to plant; 0=no damage to plant), read-out: Percentage damage caused to weed species, post-emergence, ALOMY), 20%; in test [4] (Rate 1,000 g/ha, post-emergence spray, evaluated after 13 days (100=total damage to plant; 0=no damage to plant), read-out: Percentage damage caused to weed species, post-emergence, AMARE) it was 70%; in test [5] (Rate 1,000 g/ha, post-emergence spray, evaluated after 13 days (100=total damage to plant; 0=no damage to plant), read-out: Percentage damage caused to weed species, post-emergence, ECHCG), 0%; in the test on Setaria faberi (SETFA) [6] (Rate 1,000 g/ha, post-emergence spray, evaluated after 13 days (100=total damage to plant; 0=no damage to plant), read-out: Percentage damage caused to weed species, post-emergence, SETFA) it was 20%. Further, the pest or weed control at 1000 g/ha in test [7] (pre-emergence, rate 1,000 g/ha, evaluated after 13 days (100=total damage to plant; 0=no damage), read-out: Percentage damage caused to weed species, IPOHE) was determined as 0%; with Solanum nigrum (SOLNI) [8] (pre-emergence, rate 1,000 g/ha, evaluated after 13 days (100=total damage to plant; 0=no damage), read-out: Percentage damage caused to weed species, SOLNI) it was 0%; in [9] (pre-emergence, rate 1,000 g/ha, evaluated after 13 days (100=total damage to plant; 0=no damage), read-out: Percentage damage caused to weed species, ALOMY), 0%; in test [10] (pre-emergence, rate 1,000 g/ha, evaluated after 13 days (100=total damage to plant; 0=no damage), read-out: Percentage damage caused to weed species, AMARE) it was 30%; in test [11] (pre-emergence, rate 1,000 g/ha, evaluated after 13 days (100=total damage to plant; 0=no damage), read-out: Percentage damage caused to weed species, ECHCG), 0%; with Setaria faberi (SETFA) [12] (pre-emergence, rate 1,000 g/ha, evaluated after 13 days (100=total damage to plant; 0=no damage), read-out: Percentage damage caused to weed species, SETFA), 0%.
Turning to `COC(=O)c1nc(C2CC2)nc(NC2(COc3ccc(Cl)cc3)CC2)c1Cl` [Compound 4-16, 5-Chloro-4-[1-(4-chlorophenoxy-methyl)cyclo-propylamino]-2-cyclopropyl-6-methoxycarbonyl-pyrimidine], the pest or weed control at 1000 g/ha in test [1] (setting [13]) turned out to be 100%; in the test on Solanum nigrum (SOLNI) [2] (setting [14]), 90%; in [3] (setting [15]), 20%; in [4] (setting [16]), 100%; in [5] (setting [17]), 40%; in the test with Setaria faberi (SETFA) [6] (setting [18]), 60%. The pest or weed control at 1000 g/ha in test [7] (setting [19]) turned out to be 10%; in the test with Solanum nigrum (SOLNI) [8] (setting [20]), 10%; in test [9] (setting [21]), 0%; in [10] (setting [22]), 30%; in test [11] (setting [23]), 0%; with Setaria faberi (SETFA) [12] (setting [24]), 0%.
With `COC(=O)c1nc(C2CC2)nc(NCc2ccc3c(c2)OCO3)c1Cl` [Compound 4-115, 4-(Benzo[1,3]-dioxol-5-ylmethyl-amino)-5-chloro-2-cyclopropyl-6-methoxycarbonyl-pyrimidine], the pest or weed control at 1000 g/ha in test [1] (setting [13]) stood at 100%; in the test with Solanum nigrum (SOLNI) [2] (setting [14]), 100%; in test [3] (setting [15]) it was 60%; in test [4] (setting [16]) it was 100%; in test [5] (setting [17]), 80%; with Setaria faberi (SETFA) [6] (setting [18]) it was 90%. For the same compound, the pest or weed control at 1000 g/ha in [7] (setting [19]) was determined as 90%; with Solanum nigrum (SOLNI) [8] (setting [20]) it was 90%; in test [9] (setting [21]), 30%; in test [10] (setting [22]), 100%; in test [11] (setting [23]), 60%; with Setaria faberi (SETFA) [12] (setting [24]), 60%.
